Test results as given in patent US20250296959A1, “B7-H3 TARGETING PEPTIDES AND CONSTRUCTS THEREOF” (Mariana Oncology Inc., priority 2024, published 2025).
Starred links: 1 amine or outer side, 2 acyl side, 3 side chain; linkers in the order of their positions; H or OH if unused. Positions of bridges follow the written chain, without caps; N, C: chain ends. Non-standard residues stand in square brackets, D forms with d. Residues, ends and D or L forms follow the SMILES beside them. Groups on a side chain read outwards from the residue. *: point of attachment. X6 = CSCC[C@H](NC(=O)c1ccc(CNC(=O)CN2CCN(CC(=O)O)CCN(CC(=O)O)CCN(CC(=O)O)CC2)cc1)C(=O)N[C@H](C(=O)N[C@@H](CCCCN*)C(=O)O)C(C)C; Ala(piperidin-4-yl) = O=C([C@H](CC1CCN([*:3])CC1)N[*:1])[*:2]; DOTA = O=C(O)CN1CCN(CC(=O)O)CCN(CC(=O)*)CCN(CC(=O)O)CC1; Phe(4-COOH) = N[C@@H](Cc1ccc(C(=O)O)cc1)C(=O)O; Trp(5-F) = N[C@@H](Cc1c[nH]c2ccc(F)cc12)C(=O)O; X1 = C[C@@H](c1ccccc1)[C@H](N[*:1])C(=O)[*:2]; Pro(trans-4-F) = O=C(O)[C@@H]1C[C@@H](F)CN1; 1Nal = N[C@@H](Cc1cccc2ccccc12)C(=O)O; Ala(4-THP) = N[C@@H](CC1CCOCC1)C(=O)O; AEF = NCCOc1ccc(C[C@H](N)C(=O)O)cc1; Gly(4-THP) = N[C@H](C(=O)O)C1CCOCC1; Val(3-OH) = CC(C)(O)[C@H](N)C(=O)O; 4Pal = N[C@@H](Cc1ccncc1)C(=O)O; PEG4 = NCCOCCOCCOCCOCCC(=O)O; Tle = CC(C)(C)[C@H](N)C(=O)O; hLeu = CC(C)CC[C@H](N)C(=O)O; NMeS = CN[C@@H](CO)C(=O)O

Molecular target: T1, human 4lg B7-H3 (Homo sapiens, UniProt Q5ZPR3)
T1 sequence (Q5ZPR3 29-534): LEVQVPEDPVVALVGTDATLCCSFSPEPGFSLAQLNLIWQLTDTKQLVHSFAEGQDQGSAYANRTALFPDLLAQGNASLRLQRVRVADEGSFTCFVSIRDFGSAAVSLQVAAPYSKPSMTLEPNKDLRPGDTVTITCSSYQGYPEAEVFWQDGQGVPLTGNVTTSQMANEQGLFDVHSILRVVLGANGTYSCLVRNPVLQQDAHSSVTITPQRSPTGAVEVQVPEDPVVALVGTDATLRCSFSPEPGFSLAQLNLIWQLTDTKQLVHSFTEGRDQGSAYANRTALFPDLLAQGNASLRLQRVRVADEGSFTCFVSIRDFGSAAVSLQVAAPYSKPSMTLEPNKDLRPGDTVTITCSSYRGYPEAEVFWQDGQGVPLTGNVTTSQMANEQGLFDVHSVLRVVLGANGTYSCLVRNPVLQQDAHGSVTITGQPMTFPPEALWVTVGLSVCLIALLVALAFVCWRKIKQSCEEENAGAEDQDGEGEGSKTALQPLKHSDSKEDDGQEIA
Test: Affinity determination by surface plasmon resonance (SPR) to 4Ig B7-H3
Conditions: SPR KD—25° C., 4Ig B7-H3; 25° C. flow cell temperature

Kd [nM] | SMILES
1 to 10 | CC(=O)N[C@@H](CCC(C)C)C(=O)N[C@@H](Cc1ccc(O)cc1)C(=O)N[C@H]1CSSC[C@@H](C(=O)N[C@@H](Cc2cccc3ccccc23)C(=O)N[C@@H](Cc2ccccc2)C(=O)N2C[C@H](F)C[C@H]2C(=O)O)NC(=O)[C@H](Cc2ccc(O)cc2)NC(=O)[C@H](C(C)C)NC(=O)[C@H](CC(=O)O)NC(=O)[C@H](Cc2ccncc2)NC(=O)[C@H](CCCCNC(=O)CN2CCN(CC(=O)O)CCN(CC(=O)O)CCN(CC(=O)O)CC2)NC(=O)CNC(=O)[C@H](C(C)(C)C)NC1=O [compound 264, Ac-hLeu-Y-C-Tbg-G-Lys(DOTA)-4PyA-D-V-Y-C-1Nal-F-trans4FPro-CONH2] (Ac-[hLeu]YC[Tle]GK(DOTA)[4Pal]DVYC[1Nal]F[Pro(trans-4-F)]-OH; disulfide 3-11)
1 to 10 | CC(=O)N[C@@H](CCC(C)C)C(=O)N[C@@H](Cc1ccc(O)cc1)C(=O)N[C@H]1CSSC[C@@H](C(=O)N[C@@H](Cc2c[nH]c3ccc(F)cc23)C(=O)N[C@@H](Cc2ccccc2)C(=O)N2CCC[C@H]2C(N)=O)NC(=O)[C@H](Cc2ccc(O)cc2)NC(=O)[C@H](C(C)C)NC(=O)[C@H](CC(=O)O)NC(=O)[C@H](Cc2ccc(C(=O)O)cc2)NC(=O)[C@H](CCCCNC(=O)CN2CCN(CC(=O)O)CCN(CC(=O)O)CCN(CC(=O)O)CC2)NC(=O)CNC(=O)[C@H](C(C)C)NC1=O [compound 289, Ac-hLeu-Y-C-V-G-Lys(DOTA)-4COOHPhe-D-V-Y-C-5FW-F-Pro-CONH2] (Ac-[hLeu]YCVGK(DOTA)[Phe(4-COOH)]DVYC[Trp(5-F)]FP-NH2; disulfide 3-11)
100 to 300 | CC(=O)N[C@@H](CCC(C)C)C(=O)N[C@H](C(=O)N[C@H]1CSSC[C@@H](C(=O)N[C@@H](Cc2c[nH]c3ccc(F)cc23)C(=O)N[C@@H](Cc2ccccc2)C(=O)N(C)[C@@H](CO)C(=O)N[C@H](CCCCNC(=O)CN2CCN(CC(=O)O)CCN(CC(=O)O)CCN(CC(=O)O)CC2)C(N)=O)NC(=O)[C@H](Cc2ccc(O)cc2)NC(=O)[C@H](C(C)C)NC(=O)[C@H](CC(=O)O)NC(=O)[C@H](Cc2ccc(O)cc2)NC(=O)[C@H](CC2CCNCC2)NC(=O)CNC(=O)[C@H](C(C)C)NC1=O)C1CCOCC1 [compound 213, Ac-hLeu-ThpG-C-V-G-PipAla-Y-D-V-Y-C-5FW-F-NMeSer-dLys(DOTA)-CONH2] (Ac-[hLeu][Gly(4-THP)]CVG[Ala(piperidin-4-yl)]YDVYC[Trp(5-F)]F[NMeS][dK](DOTA)-NH2; disulfide 3-11)

Same assay, conditions: SPR KD—37° C., 4Ig B7-H3; 37° C. flow cell temperature

SMILES | Kd [nM]
CC(=O)N[C@@H](CCC(C)C)C(=O)N[C@@H](Cc1ccc(O)cc1)C(=O)N[C@H]1CSSC[C@@H](C(=O)N[C@@H](Cc2c[nH]c3ccccc23)C(=O)N[C@@H](Cc2ccccc2)C(=O)N[C@H](C(=O)N[C@H](C)C(N)=O)[C@@H](C)O)NC(=O)[C@H](Cc2ccc(O)cc2)NC(=O)[C@H](C(C)C)NC(=O)[C@H](CC(=O)O)NC(=O)[C@H](Cc2ccc(OCCNC(=O)CN3CCN(CC(=O)O)CCN(CC(=O)O)CCN(CC(=O)O)CC3)cc2)NC(=O)[C@H](CCCCN)NC(=O)CNC(=O)[C@H](C(C)C)NC1=O [compound 136, Ac-hLeu-Y-C-V-G-K-AEF(DOTA)-D-V-Y-C-W-F-Thr-dAla-CONH2] (Ac-[hLeu]YCVGK[AEF](DOTA)DVYCWFT[dA]-NH2; disulfide 3-11) | < 1
CSCC[C@H](NC(=O)c1ccc(CNC(=O)CN2CCN(CC(=O)O)CCN(CC(=O)O)CCN(CC(=O)O)CC2)cc1)C(=O)N[C@H](C(=O)N[C@@H](CCCCNC(=O)[C@@H](NC(=O)[C@@H](NC(=O)[C@H](Cc1c[nH]c2ccc(F)cc12)NC(=O)[C@@H]1CSSC[C@H](NC(=O)[C@H](Cc2ccc(O)cc2)NC(=O)[C@H](CCC(C)C)NC(C)=O)C(=O)N[C@@H](C(C)(C)C)C(=O)NCC(=O)N[C@@H](CC2CCNCC2)C(=O)N[C@@H](CC2CCOCC2)C(=O)N[C@@H](CC(=O)O)C(=O)N[C@@H](C(C)C)C(=O)N[C@@H](Cc2ccc(O)cc2)C(=O)N1)[C@@H](C)c1ccccc1)C(C)(C)O)C(=O)O)C(C)C [Cpd #517, Ac-hLeu-Y-C-Tbg-G-PipAla-ThpA-D-V-Y-C-5FW-[(2S, 3S)beta-Me-Phe]-hydroxyVal-&Lys(Val-Met-AmBz-DOTA)-COOH] (Ac-[hLeu]YC[Tle]G[Ala(piperidin-4-yl)][Ala(4-THP)]DVYC[Trp(5-F)][X1][Val(3-OH)]-X6; disulfide 3-11) | < 1

Further lines, results first:

Kd [nM] | SMILES
< 1 | CC(=O)N[C@@H](CCC(C)C)C(=O)N[C@@H](Cc1ccc(O)cc1)C(=O)N[C@H]1CSSC[C@@H](C(=O)N[C@@H](Cc2c[nH]c3ccc(F)cc23)C(=O)N[C@@H](Cc2ccccc2)C(=O)N[C@H](C(=O)N[C@H](CCC(=O)O)C(N)=O)C(C)(C)O)NC(=O)[C@H](Cc2ccc(O)cc2)NC(=O)[C@H](C(C)C)NC(=O)[C@H](CC(=O)O)NC(=O)[C@H](CC2CCN(C(=O)CN3CCN(CC(=O)O)CCN(CC(=O)O)CCN(CC(=O)O)CC3)CC2)NC(=O)[C@H](CC2CCNCC2)NC(=O)CNC(=O)[C@H](C(C)(C)C)NC1=O [compound 447, Ac-hLeu-Y-C-Tbg-G-PipAla-Pip(DOTA)Ala-D-V-Y-C-5FW-F-hydroxyVal-dGlu-CONH2] (Ac-[hLeu]YC[Tle]G[Ala(piperidin-4-yl)][Ala(piperidin-4-yl)](DOTA)DVYC[Trp(5-F)]F[Val(3-OH)][dE]-NH2; disulfide 3-11)
1 to 10 | CC(=O)N[C@@H](CCC(C)C)C(=O)N[C@@H](Cc1ccc(O)cc1)C(=O)N[C@H]1CSSC[C@@H](C(=O)N[C@@H](Cc2c[nH]c3ccc(F)cc23)C(=O)N[C@@H](Cc2ccccc2)C(=O)N[C@H](C(=O)N[C@H](CCC(=O)O)C(N)=O)C(C)(C)O)NC(=O)[C@H](Cc2ccc(O)cc2)NC(=O)[C@H](C(C)C)NC(=O)[C@H](CC(=O)O)NC(=O)[C@H](CC2CCOCC2)NC(=O)[C@H](CCCCNC(=O)CN2CCN(CC(=O)O)CCN(CC(=O)O)CCN(CC(=O)O)CC2)NC(=O)CNC(=O)[C@H](C(C)(C)C)NC1=O [compound 423, Ac-hLeu-Y-C-Tbg-G-Lys(DOTA)-ThpA-D-V-Y-C-5FW-F-hydroxyVal-dGlu-CONH2] (Ac-[hLeu]YC[Tle]GK(DOTA)[Ala(4-THP)]DVYC[Trp(5-F)]F[Val(3-OH)][dE]-NH2; disulfide 3-11)
< 1 | CC(=O)N[C@@H](CCC(C)C)C(=O)N[C@@H](Cc1ccc(O)cc1)C(=O)N[C@H]1CSSC[C@@H](C(=O)N[C@@H](Cc2c[nH]c3ccc(F)cc23)C(=O)N[C@H](C(=O)N[C@H](C(=O)NCC(=O)O)C(C)(C)O)[C@@H](C)c2ccccc2)NC(=O)[C@H](Cc2ccc(O)cc2)NC(=O)[C@H](C(C)C)NC(=O)[C@H](CC(=O)O)NC(=O)[C@H](CC2CCN(C(=O)CCOCCOCCOCCOCCNC(=O)CN3CCN(CC(=O)O)CCN(CC(=O)O)CCN(CC(=O)O)CC3)CC2)NC(=O)[C@H](CC2CCNCC2)NC(=O)CNC(=O)[C@H](C(C)(C)C)NC1=O [compound 510, Ac-hLeu-Y-C-Tbg-G-PipAla-Pip(PEG4-DOTA)Ala-D-V-Y-C-5FW-[(2S, 3S)beta-Me-Phe]-hydroxyVal-Gly-COOH] (Ac-[hLeu]YC[Tle]G[Ala(piperidin-4-yl)][Ala(piperidin-4-yl)]([PEG4-DOTA])DVYC[Trp(5-F)][X1][Val(3-OH)]G-OH; disulfide 3-11)
